SMILES strings stand for the structures. ≈ marks a conversion by molar mass, not a printed value. Positions of bridges follow the written chain, without caps; N, C: chain ends. Non-standard residues stand in square brackets, D forms with d. Residues, ends and D or L forms follow the SMILES beside them. S5 = C=CCCC[C@](C)(N)C(=O)O

In one data set the test system is NIH-3T3 cell. As to conditions: 24 h. As to the method: For development of the stapled KR-12 derivatives to treat bacterial infections in vivo, their cytotoxicity was examined via the CCK-8 assay, which could provide a quantitative assessment of cell viability based on the dehydrogenase activity. The mouse embryonic fibroblast NIH-3T3 cell was selected and incubated with various concentrations of KR-12 and its stapled derivatives.
Mouse embryonic fibroblast cells NIH-3T3 and mouse monocyte macrophage leukemia cells RAW264.7 were obtained from Shanghai Institute of Biochemistry and Cell Biology, Chinese Academy of Sciences. These two cells were maintained in DMEM and RPMI-1640, respectively. Both media were supplemented with 10% FBS and 1% 100 U/mL penicillin-streptomycin solution. Cells were maintained at 37 °C in a 5% CO2 and humidified incubator. Replace the culture medium every day until the cell grows to confluence. Cells were then treated with 0.25% trypsin–EDTA and split using fresh medium for either passage or analysis.
CCK-8 cell counting kit was utilized to examine the cytotoxicity of the linear and stapled peptides. NIH-3T3 cell was planked at a density of 1.5×10^4 cell/well in a 96 - well plate and incubated it for 24 hours at 37 °C. Cells were then treated with different concentrations of peptides in fresh DMEM and incubated for 24 hours before the addition of 10 μL CCK -8 and incubation for a further 1 hour. Measure the absorbance at 450nm using a microplate reader (BioTek, USA) and calculate the percentage of cell viability as: cell viability (%) = (Abspeptide-Absblank)/(Abscontrol-Absblank)×100%, where Abscontrol is the absorbance of cells treated with PBS and Abs blank is the absorbance of the cell-free medium. The data was fitted using the nonlinear regression within

The nature of another data set: Serum stability assay. Format: in vitro ADME, human. As to conditions: human serum, 2 mg/mL peptide in pH 7.4 PBS mixed with serum 1:4, 37 °C, up to 48 h, RP-HPLC UV 220 nm, 3 independent measurements. From the text:
Maintaining high stability and presenting high compatibility in the complex physiological environment are important criterions for the clinical translation of AMPs. […] The derivatives were mixed with human serum in pH 7.4 PBS, simulating the degradation process of peptides by proteases in vivo. The percentages of intact derivatives were monitored and determined with time according to the PR-HPLC. […]
Serum stability of the linear and stapled peptides was examined by RP -HPLC as previously described. 2 mg/mL peptide solution was prepared in pH 7.4 PBS and incubated with human serum (Gemini, USA) to the final volume ratio of 1:4 at 37 °C.
At various time intervals, 50 μL mixture was added to 50 μL ethanol to terminate the enzymatic hydrolysis. After centrifugation at 10,000 rpm for 10 minutes under 4 °C, […]
the supernatant was collected and analyzed by RP-HPLC, with a UV detector monitored at 220 nm. Record the peak area of the intact peptide and calculate the percentage of remaining peptide based on the integrated area as, Peptide remaining (%) = peak area of remaining peptide/peak area of intact peptide×100%. […]

The test system of another data set is A. baumannii. As to conditions: 24 h. The protocol: (§1) According to the protocol of Clinical & Laboratory Standards Institute, the minimum inhibitory concentration (MIC) of the linear and stapled peptides against a panel of gram-positive and gram-negative bacteria was determined by the broth microdilution method. […]
(§2) Bacterial strains and culture
(§3) Bacterial type stains ATCC 25923 S. aureus, ATCC 12228 S. epidermidis, ATCC […]
(§4) aeruginosa and ATCC 13883 K. pneumoniae were obtained from Shanghai Bioresource Collection Center. The bacterial culture medium was purchased from Oxoid and autoclaved according to the instructions from manufacturer. The isolated strains were cultured in Mueller Hinton II broth and continuously shaken at 140 rpm for 18 hours to the middle of the exponential growth phase at 37 °C with an OD value of 0.4-0.5.
(§5) Bacterial suspensions with an OD value of 0.1, approximately […], were then diluted for further assays.
(§6) The minimal inhibition concentration (MIC) of the linear and stapled peptides was determined using the microbroth dilution method from the Clinical and Laboratory Standards Institute (CLSI)[2, 3]. Bacterial suspensions of 10 6 CFU/mL were prepared in MH-II broth and peptide solutions at varying concentrations were prepared in phosphate buffer saline (PBS). Then 50 μL peptide solution and 50 μL bacterial suspension were mixed in a 96 -well plate. Plates were incubated for 24 hours at 37 °C.
(§7) 10 μL AlamarBlue cell viability reagent (ThermoFisher Scientific, UK) was added to each well, then the plate was re -incubated for a further 2 hours at 37 °C. The MIC was recorded as the minimum concentration of peptides required to completely in hibit bacteria growth. For serum stability assessment, the peptide solutions were pre - incubated with 50% human serum for 4 h before the MIC determination. Experiments were performed in 3 independent measurements. […]

The next data set deals with S. aureus. The settings on record: 24 h. The protocol:
as §1, §2, §3, §4, §5, §6, §7

For a further data set, the system named is S. epidermidis. The settings on record: 24 h. As to the method: as §1, §2, §3, §4, §5, §6, §7
The subject of another data set is E. faecalis. The settings on record: 24 h. The protocol:
as §1, §2, §3, §4, §5, §6, §7

The next data set deals with P. aeruginosa. The settings on record: 24 h. As to the method:
as §1, §2, §3, §4, §5, §6, §7

The test system of a further data set is E. coli. The settings on record: 24 h. As to the method: as §1, §2, §3, §4, §5, §6, §7
A further data set deals with K. pneumoniae. The settings on record: 24 h. The protocol:
as §1, §2, §3, §4, §5, §6, §7

`CC[C@H](C)[C@@H]1NC(=O)[C@H](CCCNC(=N)N)NC(=O)[C@@](C)(NC(=O)[C@@H](NC(=O)[C@@H](NC(=O)[C@H](CCCNC(=N)N)NC(=O)[C@H](CCCCN)NC(C)=O)[C@@H](C)CC)C(C)C)CCCC=CCCC[C@@](C)(C(=O)N[C@@H](Cc2ccccc2)C(=O)N[C@@H](CC(C)C)C(=O)N[C@@H](CCCNC(=N)N)C(N)=O)NC(=O)[C@H](CCCCN)NC1=O` [KR-12 (Q5, D9)] (Ac-KRIV[S5]RIK[S5]FLR-NH2; staple 5-9): the “IC50 against NIH-3T3 cell” value with NIH-3T3 cell is 168.5 µg/mL (≈ 104 µM). Moreover, in “Serum stability assay”, the “TD50 (time at which 50% of the peptide is degraded in the presence of serum)” value was 8.91 h. For the same compound, in the data set with A. baumannii, the “MIC A. baumannii” value was found to be 16 µg/mL (≈ 9.88 µM). In the data set with S. aureus, the “MIC S. aureus” value was found to be 8 µg/mL (≈ 4.94 µM). In addition, the “MIC S. epidermidis” value against S. epidermidis was determined as 16 µg/mL (≈ 9.88 µM). In addition, the “MIC E. faecalis” value in the data set with E. faecalis was found to be 8 µg/mL (≈ 4.94 µM). For the same compound, in the data set with P. aeruginosa, the “MIC P. aeruginosa” value came to 64 µg/mL (≈ 39.5 µM). The “MIC E. coli” value in the data set on E. coli is 8 µg/mL (≈ 4.94 µM). Also, the “MIC K. pneumoniae” value in the data set with K. pneumoniae was 128 µg/mL (≈ 79 µM).
Turning to `CC[C@H](C)[C@H](NC(=O)[C@]1(C)CCCC=CCCC[C@](C)(NC(=O)[C@H](CCCCN)NC(C)=O)C(=O)N[C@@H]([C@@H](C)CC)C(=O)N[C@@H](C(C)C)C(=O)N[C@@H](CCC(N)=O)C(=O)N1)C(=O)N[C@@H](CCCCN)C(=O)N[C@@H](CC(=O)O)C(=O)N[C@@H](Cc1ccccc1)C(=O)N[C@@H](CC(C)C)C(=O)N[C@@H](CCCNC(=N)N)C(N)=O` [KR-12 (R2, R6)] (Ac-K[S5]IVQ[S5]IKDFLR-NH2; staple 2-6), the “IC50 against NIH-3T3 cell” value with NIH-3T3 cell worked out at 78.3 µg/mL (≈ 50.5 µM). In the data set “Serum stability assay”, the “TD50 (time at which 50% of the peptide is degraded in the presence of serum)” value came to 2.38 h. Also, in the data set on A. baumannii, the “MIC A. baumannii” value is greater than 256 µg/mL. In the data set on S. aureus, the “MIC S. aureus” value worked out at 128 µg/mL (≈ 82.5 µM). For the same compound, the “MIC S. epidermidis” value against S. epidermidis is 128 µg/mL (≈ 82.5 µM). Moreover, the “MIC E. faecalis” value against E. faecalis stood at 128 µg/mL (≈ 82.5 µM). Also, the “MIC P. aeruginosa” value against P. aeruginosa was greater than 256 µg/mL. In addition, the “MIC E. coli” value in the data set with E. coli was greater than 256 µg/mL. In addition, in the data set with K. pneumoniae, the “MIC K. pneumoniae” value is greater than 256 µg/mL.
As to `CC[C@H](C)[C@H](NC(=O)[C@H](CCCNC(=N)N)NC(=O)[C@H](CCCCN)NC(C)=O)C(=O)N[C@H](C(=O)N[C@@H](CCC(N)=O)C(=O)N[C@@H](CCCNC(=N)N)C(=O)N[C@@]1(C)CCCC=CCCC[C@@](C)(C(=O)N[C@@H](CCCNC(=N)N)C(N)=O)NC(=O)[C@H](Cc2ccccc2)NC(=O)[C@H](CC(=O)O)NC(=O)[C@H](CCCCN)NC1=O)C(C)C` [KR-12 (I7, L11)] (Ac-KRIVQR[S5]KDF[S5]R-NH2; staple 7-11), the “IC50 against NIH-3T3 cell” value in the data set with NIH-3T3 cell worked out at 212.8 µg/mL (≈ 130 µM). Moreover, in “Serum stability assay”, the “TD50 (time at which 50% of the peptide is degraded in the presence of serum)” value is 11.44 h. Further, the “MIC A. baumannii” value against A. baumannii was found to be 64 µg/mL (≈ 39.1 µM). For the same compound, the “MIC S. aureus” value in the data set with S. aureus was 32 µg/mL (≈ 19.5 µM). Further, the “MIC S. epidermidis” value in the data set on S. epidermidis was found to be 128 µg/mL (≈ 78.2 µM). For the same compound, the “MIC E. faecalis” value in the data set with E. faecalis is 32 µg/mL (≈ 19.5 µM). Further, the “MIC P. aeruginosa” value against P. aeruginosa was determined as 256 µg/mL (≈ 156 µM). Further, the “MIC E. coli” value in the data set on E. coli came to 32 µg/mL (≈ 19.5 µM). Also, the “MIC K. pneumoniae” value in the data set on K. pneumoniae is 256 µg/mL (≈ 156 µM).
Turning to `CC(=O)N[C@@H](CCCCN)C(=O)N[C@@H](CCCNC(=N)N)C(=O)N[C@@]1(C)CCCC=CCCC[C@@](C)(C(=O)N[C@@H](CCCCN)C(=O)N[C@@H](CC(=O)O)C(=O)N[C@@H](Cc2ccccc2)C(=O)N[C@@H](CC(C)C)C(=O)N[C@@H](CCCNC(=N)N)C(N)=O)NC(=O)[C@H](CCCNC(=N)N)NC(=O)[C@H](CCC(N)=O)NC(=O)[C@H](C(C)C)NC1=O` [KR-12 (I3, I7)] (Ac-KR[S5]VQR[S5]KDFLR-NH2; staple 3-7), the “IC50 against NIH-3T3 cell” value in the data set on NIH-3T3 cell was determined as 145.7 µg/mL (≈ 89 µM). Moreover, in the data set “Serum stability assay”, the “TD50 (time at which 50% of the peptide is degraded in the presence of serum)” value came out at 4.21 h. Besides, the “MIC A. baumannii” value in the data set on A. baumannii came to 32 µg/mL (≈ 19.5 µM). For the same compound, the “MIC S. aureus” value in the data set on S. aureus was 8 µg/mL (≈ 4.89 µM). For the same compound, the “MIC S. epidermidis” value against S. epidermidis worked out at 64 µg/mL (≈ 39.1 µM). In addition, the “MIC E. faecalis” value with E. faecalis was determined as 16 µg/mL (≈ 9.77 µM). For the same compound, the “MIC P. aeruginosa” value with P. aeruginosa is 256 µg/mL (≈ 156 µM). Besides, the “MIC E. coli” value in the data set with E. coli was determined as 16 µg/mL (≈ 9.77 µM). In addition, the “MIC K. pneumoniae” value in the data set with K. pneumoniae worked out at 128 µg/mL (≈ 78.2 µM).
